Test results published in patent US7446199B2, “Compositions useful as inhibitors of protein kinases” (Vertex Pharmaceuticals Incorporated, priority 2003, dated 2008).

Legend:
[1] = biological target: GSK-3β, (AA 1-420) (Homo sapiens, UniProt P49841); experiment: GSK-3 inhibition assay, coupled enzyme system; type: biochemical; settings: 20 μM ATP, 300 μM peptide, 20 nM GSK-3b, 30° C.; read-out: Ki values (GSK3)
Method in brief: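 Pyruvate kinase/lactate dehydrogenase-coupled NADH assay with 20 nM enzyme, 20 μM ATP and 300 μM peptide in HEPES pH 7.5, 1.5% DMSO, 30° C. Compound (0.002–30 μM, 12-point) preincubated 10 min before ATP start; rates over 10 min gave Ki.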

[2] = biological target: T1, FLT-3 (Homo sapiens, UniProt P36888); experiment: Inhibition of FLT-3, radiometric filter-binding assay; type: biochemical; settings: 90 μM ATP, 0.5 mg/mL pE4Y, room temperature
T1 construct: 0.02% BSA and 3 nM FLT-3
T1 sequence (P36888 27-993): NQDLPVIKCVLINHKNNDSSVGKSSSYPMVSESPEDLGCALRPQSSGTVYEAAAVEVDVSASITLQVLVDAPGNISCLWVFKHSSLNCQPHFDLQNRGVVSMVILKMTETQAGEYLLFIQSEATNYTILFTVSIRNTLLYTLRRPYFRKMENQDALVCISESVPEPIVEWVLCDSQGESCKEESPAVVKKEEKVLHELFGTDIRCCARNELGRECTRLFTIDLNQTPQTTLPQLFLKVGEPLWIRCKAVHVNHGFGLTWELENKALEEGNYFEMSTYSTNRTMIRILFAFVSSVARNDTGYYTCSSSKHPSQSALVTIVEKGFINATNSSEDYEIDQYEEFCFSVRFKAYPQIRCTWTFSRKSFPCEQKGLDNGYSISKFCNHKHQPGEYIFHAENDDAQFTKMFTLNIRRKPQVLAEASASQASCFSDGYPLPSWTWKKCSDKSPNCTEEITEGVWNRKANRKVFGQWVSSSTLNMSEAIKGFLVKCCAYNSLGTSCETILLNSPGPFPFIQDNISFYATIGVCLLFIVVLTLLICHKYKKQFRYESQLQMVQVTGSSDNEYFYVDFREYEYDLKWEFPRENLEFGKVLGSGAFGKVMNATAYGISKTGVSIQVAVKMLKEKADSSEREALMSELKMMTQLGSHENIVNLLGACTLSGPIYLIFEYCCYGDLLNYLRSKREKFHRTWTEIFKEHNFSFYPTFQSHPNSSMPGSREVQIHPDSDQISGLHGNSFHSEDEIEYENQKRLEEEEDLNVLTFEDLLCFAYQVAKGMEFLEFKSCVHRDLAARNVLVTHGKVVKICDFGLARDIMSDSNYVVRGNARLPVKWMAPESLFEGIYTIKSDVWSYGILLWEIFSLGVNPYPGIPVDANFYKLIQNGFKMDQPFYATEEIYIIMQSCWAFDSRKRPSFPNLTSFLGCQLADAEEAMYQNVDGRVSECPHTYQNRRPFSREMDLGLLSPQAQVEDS
Method in brief: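 Radiometric filter-binding assay of FLT-3 (3 nM in Solution 2; final conc not stated) phosphorylating poly(Glu,Tyr) 4:1 (0.5 mg/mL) with 90 μM ATP plus [γ-33P]ATP, in HEPES pH 7.5, MgCl2, NaCl, DTT, BSA, 2.5% DMSO. 12-point titration, typically 0.01–5 μM, 20 min at room temperature; TCA-stopped, filtered, scintillation-counted; IC50 or Ki fitted.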

GSK-3β, (AA 1-420), sequence (P49841 whole entry, the tested form may be a part): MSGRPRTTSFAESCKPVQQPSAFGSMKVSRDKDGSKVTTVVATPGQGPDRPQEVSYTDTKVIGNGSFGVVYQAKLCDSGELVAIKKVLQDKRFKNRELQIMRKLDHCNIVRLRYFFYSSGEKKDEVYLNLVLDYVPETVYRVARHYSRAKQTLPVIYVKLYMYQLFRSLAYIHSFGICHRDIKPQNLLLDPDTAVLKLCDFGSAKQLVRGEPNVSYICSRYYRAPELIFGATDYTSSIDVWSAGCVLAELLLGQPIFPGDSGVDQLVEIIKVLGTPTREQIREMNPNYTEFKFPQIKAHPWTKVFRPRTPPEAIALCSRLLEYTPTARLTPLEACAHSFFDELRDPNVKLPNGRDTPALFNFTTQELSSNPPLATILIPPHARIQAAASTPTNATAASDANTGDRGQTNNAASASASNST

| SMILES | Ki [1] [nM] | Ki [2] [nM] |
| --- | --- | --- |
| Nc1ccnc(-c2cnc3[nH]cc(-c4oncc4-c4cccc(F)c4F)c3c2)c1 [Compound 83, 2-{3-[4-(2,3-Difluoro-phenyl)-isoxazol-5-yl]-1H-pyrrolo [2,3-b]pyridin-5-yl}-pyridin-4-ylamine] | 200 to 1000 | 1000 to 12500 |
| CN(C)Cc1ccc(-c2cnc3[nH]cc(-c4oncc4-c4cccc(F)c4F)c3c2)nc1 [Compound 84, (6-{3-[4-(2,3-Difluoro-phenyl)-isoxazol-5-yl]-1H-pyrrolo[2,3-b]pyridin-5-yl}-pyridin-3-ylmethyl)-dimethyl-amine] | 200 to 1000 | < 200 |
| Fc1cccc(-c2cnoc2-c2c[nH]c3ncc(-c4cncnc4)cc23)c1F [Compound 85, 3-[4-(2,3-Difluoro-phenyl)-isoxazol-5-yl]-5-pyrimidin-5-yl-1H-pyrrolo[2,3-b]pyridine] | 1000 to 12500 | 200 to 1000 |
| Nc1cccc(-c2cnc3[nH]cc(-c4oncc4-c4cccc(F)c4F)c3c2)c1 [Compound 86, 3-{3-[4-(2,3-Difluoro-phenyl)-isoxazol-5-yl]-1H-pyrrolo [2,3-b]pyridin-5-yl}-phenylamine] | < 200 | < 200 |
| Oc1cccc(-c2cnc3[nH]cc(-c4oncc4-c4cccc(F)c4F)c3c2)c1 [Compound 87, 3-{3-[4-(2,3-Difluoro-phenyl)-isoxazol-5-yl]-1H-pyrrolo [2,3-b]pyridin-5-yl}-phenol] | 1000 to 12500 | < 200 |
| Nc1ccc(-c2cnc3[nH]cc(-c4oncc4-c4cccc(F)c4F)c3c2)cc1 [Compound 90, 4-{3-[4-(2,3-Difluoro-phenyl)-isoxazol-5-yl]-1H-pyrrolo [2,3-b]pyridin-5-yl}-phenylamine] | < 200 | < 200 |
| CN(C)Cc1ccc(-c2cnc3[nH]cc(-c4oncc4-c4cccc(F)c4F)c3c2)cc1 [Compound 91, (4-{3-[4-(2,3-Difluoro-phenyl)-isoxazol-5-yl]-1H-pyrrolo[2,3-b]pyridin-5-yl}-benzyl)-dimethyl-amine] | 1000 to 12500 | < 200 |
| Fc1cccc(-c2cnoc2-c2c[nH]c3ncc(-c4ccc(CN5CCOCC5)cc4)cc23)c1F [Compound 92, 3-[4-(2,3-Difluoro-phenyl)-isoxazol-5-yl]-5-(4-morpholin-4-ylmethyl-phenyl)-1H-pyrrolo[2,3-b]pyridine] | 200 to 1000 | < 200 |
| Fc1cccc(-c2cnoc2-c2c[nH]c3ncc(-c4ccc(CN5CCCC5)cc4)cc23)c1F [Compound 93, 3-[4-(2,3-Difluoro-phenyl)-isoxazol-5-yl]-5-(4-pyrrolidin-1-ylmethyl-phenyl)-1H-pyrrolo[2,3-b]pyridine] | 200 to 1000 | < 200 |
| CN1CCN(Cc2ccc(-c3cnc4[nH]cc(-c5oncc5-c5cccc(F)c5F)c4c3)cc2)CC1 [Compound 94, 3-[4-(2,3-Difluoro-phenyl)-isoxazol-5-yl]-5-[4-(4-methyl-piperazin-1-ylmethyl)-phenyl]-1H-pyrrolo[2,3-b]pyridine] | 200 to 1000 | < 200 |
| CC(=O)Nc1ccc(-c2cnc3[nH]cc(-c4oncc4-c4cccc(F)c4F)c3c2)cc1 [Compound 95, N-(4-{3-[4-(2,3-Difluoro-phenyl)-isoxazol-5-yl]-1H-pyrrolo[2,3-b]pyridin-5-yl}-phenyl)-acetamide] | 1000 to 12500 | < 200 |
| COc1cncc(-c2cnc3[nH]cc(-c4oncc4-c4cccc(F)c4F)c3c2)c1 [Compound 96, 3-[4-(2,3-Difluoro-phenyl)-isoxazol-5-yl]-5-(5-methoxy-pyridin-3-yl)-1H-pyrrolo[2,3-b]pyridine] | 200 to 1000 | 200 to 1000 |
| CS(=O)(=O)Nc1ccc(-c2cnc3[nH]cc(-c4oncc4-c4cccc(F)c4F)c3c2)cc1 [Compound 98, N-(4-{3-[4-(2,3-Difluoro-phenyl)-isoxazol-5-yl]-1H-pyrrolo[2,3-b]pyridin-5-yl}-phenyl)-methane sulfonamide] | < 200 | < 200 |
| Clc1cccc(-c2cnoc2-c2c[nH]c3ncc(-c4cccnc4)cc23)c1Cl [Compound 99, 3-[4-(2,3-Dichloro-phenyl)-isoxazol-5-yl]-5-pyridin-3-yl-1H-pyrrolo[2,3-b]pyridine] | < 200 | < 200 |
| CNc1ccc2c(-c3oncc3-c3cccc(F)c3F)c[nH]c2n1 [Compound 102, {3-[4-(2,3-Difluoro-phenyl)-isoxazol-5-yl]-1H-pyrrolo[2,3-b]pyridin-6-yl}-methyl-amine] | 1000 to 12500 | 1000 to 12500 |
| COC(=O)c1cnc2[nH]cc(-c3oncc3-c3cccc(F)c3F)c2c1 [Compound 105, 3-[4-(2,3-Difluoro-phenyl)-isoxazol-5-yl]-1H-pyrrolo[2,3-b]pyridine-5-carboxylic acid methyl ester] | 200 to 1000 | < 200 |
| CN(C)c1ccc(-c2cnc3[nH]cc(-c4nncn4-c4cccc(F)c4F)c3c2)cc1 [Compound 106, (4-{3-[4-(2,3-Difluoro-phenyl)-4H-[1,2,4]triazol-3-yl]-1H-pyrrolo[2,3-b]pyridin-5-yl}-phenyl)-dimethyl-amine] | < 200 | 200 to 1000 |
| Fc1cccc(-n2cnnc2-c2c[nH]c3ncc(-c4ccc(CN5CCOCC5)cc4)cc23)c1F [Compound 109, 3-[4-(2,3-Difluoro-phenyl)-4H-[1,2,4]triazol-3-yl]-5-(4-morpholin-4-ylmethyl-phenyl)-1H-pyrrolo[2,3-b]pyridine] | < 200 | 200 to 1000 |
| CN1CCN(c2ccc(-c3cnc4[nH]cc(-c5nncn5-c5cccc(F)c5F)c4c3)cc2)CC1 [Compound 110, 3-[4-(2,3-Difluoro-phenyl)-4H-[1,2,4]triazol-3-yl]-5-[4-(4-methyl-piperazin-1-yl)-phenyl]-1H-pyrrolo[2,3-b]pyridine] | 200 to 1000 | 200 to 1000 |
| CN1CCN(c2ccc(-c3cnc4[nH]cc(-c5nncn5-c5cccc(F)c5F)c4c3)cn2)CC1 [Compound 112] | 200 to 1000 | 200 to 1000 |
| Fc1cccc(-n2cnnc2-c2c[nH]c3ncc(-c4ccc(N5CCC[C@H]5CN5CCCC5)nc4)cc23)c1F [Compound 115, 3-[4-(2,3-Difluoro-phenyl)-4H-[1,2,4]triazol-3-yl]-5-[6-(2-pyrrolidin-1-ylmethyl-pyrrolidin-1-yl)-pyridin-3-yl]-1H-pyrrolo[2,3-b]pyridine] | 200 to 1000 | 200 to 1000 |
| OC1CCN(c2ccc(-c3cnc4[nH]cc(-c5nncn5-c5cccc(F)c5F)c4c3)cn2)CC1 [Compound 116, 5′-{3-[4-(2,3-Difluoro-phenyl)-4H-[1,2,4]triazol-3-yl]-1H-pyrrolo[2,3-b]pyridin-5-yl}-3,4,5,6-tetrahydro-2H-[1,2′]bi-pyridinyl-4-ol] | 200 to 1000 | 200 to 1000 |
| CN1CCCN(c2ccc(-c3cnc4[nH]cc(-c5nncn5-c5cccc(F)c5F)c4c3)cn2)CC1 [Compound 117, 3-[4-(2,3-Difluoro-phenyl)-4H-[1,2,4]triazol-3-yl]-5-[6-(4-methyl-[1,4]diazepan-1-yl)-pyridin-3-yl]-1H-pyrrolo [2,3-b]-pyridine] | 200 to 1000 | 200 to 1000 |
| Fc1cccc(-n2cnnc2-c2c[nH]c3ncc(-c4ccc(N5CCCC5)nc4)cc23)c1F [Compound 118, 3-[4-(2,3-Difluoro-phenyl)-4H-[1,2,4]triazol-3-yl]-5-(6-pyrrolidin-1-yl-pyridin-3-yl)-1H-pyrrolo[2,3-b]pyridine] | 200 to 1000 | 200 to 1000 |
| CN(C)CCNc1ccc(-c2cnc3[nH]cc(-c4nncn4-c4cccc(F)c4F)c3c2)cn1 [Compound 119, N′-(5-{3-[4-(2,3-Difluoro-phenyl)-4H-[1,2,4]triazol-3-yl]-1H-pyrrolo[2,3-b]pyridin-5-yl}-pyridin-2-yl)-N,N-dimethyl-ethane-1,2-diamine] | 200 to 1000 | 200 to 1000 |
| Fc1cccc(-c2cnoc2-c2c[nH]c3ncc(/C=C/n4cncn4)cc23)c1F [Compound 133, 3-[4-(2,3-Difluoro-phenyl)-isoxazol-5-yl]-5-(2-[1,2,4]triazol-1-yl-vinyl)-1H-pyrrolo[2,3-b]pyridine] | < 200 | < 200 |
